Results on 22 compounds are retold here after patent publication US20070004660A1, “Synergistic Modulation of Flt3 Kinase Using Alkylquinolines and Alkylquinazolines” (priority 2005, published 2007).

SMILES strings stand for the structures. Some results are limits rather than exact numbers.

This assay deals with MV4-11 cells. In words: Inhibition of MV4-11 cell proliferation (CellTiterGlo, 72 h). Type of assay: cell-based. The following applies: Homo sapiens; 72 h growth inhibition; uncertainty ±20%.
As for `CN1CCN(CCOc2ccc3c(C4CCN(C(=O)Nc5ccc(N6CCCC6)cc5)CC4)ncnc3c2)CC1` [Example 157, 4-{7-[2-(4-Methyl-piperazin-1-yl)-ethoxy]-quinazolin-4-yl}-piperidine-1-carboxylic acid (4-pyrrolidin-1-yl-phenyl)-amide], the IC50 (commonly the concentration that gives 50% inhibition) was determined as 9 nM.

In the case of `CS(=O)(=O)CCNc1ccc2c(C3CCN(C(=O)Nc4ccc(N5CCOCC5)cc4)CC3)ncnc2c1` [Example 146, 4-[7-(2-Methanesulfonyl-ethylamino)-quinazolin-4-yl]-piperidine-1-carboxylic acid (4-morpholin-4-yl-phenyl)-amide], inhibition was half-maximal at 322 nM (IC50).

Consider `CN(C)[C@@H]1CCN(c2ccc3c(C4CCN(C(=O)Nc5ccc(N6CCOCC6)cc5)CC4)ncnc3c2)C1` [Example 150, (R)-4-[7-(3-Dimethylamino-pyrrolidin-1-yl)-quinazolin-4-yl]-piperidine-1-carboxylic acid (4-morpholin-4-yl-phenyl)-amide], for which the IC50 was 269 nM. The IC50 values of the last two compounds are within 1.5-fold of each other.

`CS(=O)(=O)N1CCN(c2ccc3c(C4CCN(C(=O)Nc5ccc(N6CCOCC6)cc5)CC4)ncnc3c2)CC1` [Example 142, 4-[7-(4-Methanesulfonyl-piperazin-1-yl)-quinazolin-4-yl]-piperidine-1-carboxylic acid (4-morpholin-4-yl-phenyl)-amide] showed an IC50 of 88 nM.

For the compound `O=C(Nc1ccc(N2CCCC2)cc1)N1CCC(c2ncnc3cc(N4CCOC4=O)ccc23)CC1` [Example 176, 4-[7-(2-Oxo-oxazolidin-3-yl)-quinazolin-4-yl]-piperidine-1-carboxylic acid (4-pyrrolidin-1-yl-phenyl)-amide], the IC50 stood at 8 nM. This IC50 lies about 11-fold lower than the previous one.

Compound `O=C(Nc1ccc(N2CCOCC2)cc1)N1CCC(c2ncnc3cc(OCCN4CCOC4=O)ccc23)CC1` [Example 148, 4-{7-[2-(2-Oxo-oxazolidin-3-yl)-ethoxy]-quinazolin-4-yl}-piperidine-1-carboxylic acid (4-morpholin-4-yl-phenyl)-amide] yielded an IC50 of 66 nM. This IC50 is about 8.2-fold higher than that of the compound before.

`O=C(Nc1ccc(N2CCCC2)cc1)N1CCC(c2ncnc3cc(N4CCOCC4)ccc23)CC1` [Compound 181, 4-(7-Morpholin-4-yl-quinazolin-4-yl)-piperidine-1-carboxylic acid (4-pyrrolidin-1-yl-phenyl)-amide] had an IC50 of 9 nM.

In the case of `CN1CCN(c2ccc3c(C4CCN(C(=O)Nc5ccc(N6CCCC6)nc5)CC4)ncnc3c2)CC1` [Example 160, 4-[7-(4-Methyl-piperazin-1-yl)-quinazolin-4-yl]-piperidine-1-carboxylic acid (6-pyrrolidin-1-yl-pyridin-3-yl)-amide], the IC50 stood at 67 nM.

With `O=C(Nc1ccc(N2CCOCC2)cc1)N1CCC(c2ncnc3cc(N4CCC[C@@H]4CO)ccc23)CC1` [Example 132, (R)-4-[7-(2-Hydroxymethyl-pyrrolidin-1-yl)-quinazolin-4-yl]-piperidine-1-carboxylic acid (4-morpholin-4-yl-phenyl)-amide], 33 nM corresponded to half-maximal inhibition (IC50).

In turn, `CC(=O)N1CCN(c2ccc3c(C4CCN(C(=O)Nc5ccc(N6CCCC6)cc5)CC4)ncnc3c2)CC1` [Example 166, 4-[7-(4-Acetyl-piperazin-1-yl)-quinazolin-4-yl]-piperidine-1-carboxylic acid (4-pyrrolidin-1-yl-phenyl)-amide] displayed an IC50 of 17 nM.

`COc1cc2ncnc(C3CCN(C(=O)Nc4ccc(C5CCCCC5)cc4)CC3)c2cc1OC` [Example 21, 4-(6,7-Dimethoxy-quinazolin-4-yl)-piperidine-1-carboxylic acid (4-cyclohexyl-phenyl)-amide] gave an IC50 of 27 nM.

In turn, `O=C(Nc1ccc(N2CCCC2)cc1)N1CCC(c2ncnc3cc(OCCCN4CCC[C@H]4CO)ccc23)CC1` [Example 161, (S)-4-{7-[3-(2-Hydroxymethyl-pyrrolidin-1-yl)-propoxy]-quinazolin-4-yl}-piperidine-1-carboxylic acid (4-pyrrolidin-1-yl-phenyl)-amide] gave an IC50 of 13 nM.

Regarding `CN(C)C(=O)N1CCN(CCCOc2ccc3c(C4CCN(C(=O)Nc5ccc(N6CCCC6)cc5)CC4)ncnc3c2)CC1` [Example 165, 4-(3-{4-[1-(4-Pyrrolidin-1-yl-phenylcarbamoyl)-piperidin-4-yl]-quinazolin-7-yloxy}-propyl)-piperazine-1-carboxylic acid dimethylamide], half-maximal inhibition (IC50) required 18 nM. The IC50 values of the last two compounds are within 1.5-fold of each other.

On to `O=C(CO)N1CCN(c2ccc3c(C4CCN(C(=O)Nc5ccc(N6CCCC6)cc5)CC4)ncnc3c2)CC1` [Compound 201, 4-{7-[4-(2-Hydroxy-acetyl)-piperazin-1-yl]-quinazolin-7-yl}-piperidine-1-carboxylic acid (4-pyrrolidin-1-yl-phenyl)-amide], for which the IC50 was found to be 16 nM.

As for `CC(C)Oc1ccc(NC(=O)N2CCC(c3ncnc4ccc(C#CCN5CCOCC5)cc34)CC2)cc1` [Example 15, 4-[6-(3-Morpholin-4-yl-prop-1-ynyl)-quinazolin-4-yl]-piperidine-1-carboxylic acid (4-isopropoxy-phenyl)-amide], the midpoint of inhibition, the IC50, lay at 30 nM. Compared with the last compound, the IC50 is about 1.9-fold higher.

As to `O=C(Nc1ccc(N2CCOCC2)cc1)N1CCC(c2ncnc3cc(N4CCOCC4)ccc23)CC1` [Example 145, 4-(7-Morpholin-4-yl-quinazolin-4-yl)-piperidine-1-carboxylic acid (4-morpholin-4-yl-phenyl)-amide], the 50% inhibitory concentration (IC50) amounted to 137 nM.

In turn, `CC(=O)N1CCC[C@H]1COc1ccc2c(C3CCN(C(=O)Nc4ccc(N5CCCC5)cc4)CC3)ncnc2c1` [Example 162, (S)-4-[7-(1-Acetyl-pyrrolidin-2-ylmethoxy)-quinazolin-4-yl]-piperidine-1-carboxylic acid (4-pyrrolidin-1-yl-phenyl)-amide] had an IC50 of 46 nM.

`CN(C)C(=O)N1CCN(c2ccc3c(C4CCN(C(=O)Nc5ccc(N6CCOCC6)cc5)CC4)ncnc3c2)CC1` [Example 143, 4-{4-[1-(4-Morpholin-4-yl-phenylcarbamoyl)-piperidin-4-yl]-quinazolin-7-yl}-piperazine-1-carboxylic acid dimethylamide] returned an IC50 of 39 nM.

With `O=C(Nc1ccc(N2CCCC2)cc1)N1CCC(c2ncnc3cc(O[C@@H]4CCOC4)ccc23)CC1` [Compound 191, (R)-4-[7-(Tetrahydro-furan-3-yloxy)-quinazolin-4-yl]-piperidine-1-carboxylic acid (4-pyrrolidin-1-yl-phenyl)-amide], the midpoint of inhibition, the IC50, lay at 71 nM.

For `COc1cc2ncnc(C3CCN(C(=O)Nc4ccc(CO)cc4)CC3)c2cc1OC` [Example 22, 4-(6,7-Dimethoxy-quinazolin-4-yl)-piperidine-1-carboxylic acid (4-hydroxymethyl-phenyl)-amide], the IC50 was greater than 10000 nM.

`CS(=O)(=O)N1CCN(CCCOc2ccc3c(C4CCN(C(=O)Nc5ccc(N6CCCC6)cc5)CC4)ncnc3c2)CC1` [Example 164, 4-{7-[3-(4-Methanesulfonyl-piperazin-1-yl)-propoxy]-quinazolin-4-yl}-piperidine-1-carboxylic acid (4-pyrrolidin-1-yl-phenyl)-amide]: the IC50 stood at 36 nM.

`O=C(Nc1ccc(N2CCCC2)cc1)N1CCC(c2ncnc3cc(OCCO)ccc23)CC1` [Example 169, 4-[7-(2-Hydroxy-ethoxy)-quinazolin-4-yl]-piperidine-1-carboxylic acid (4-pyrrolidin-1-yl-phenyl)-amide] came in with an IC50 of 32 nM.
